Test results reported in patent US6514946B1, “Macrolide antibiotics and treatment and prophylaxis of pasteurellosis using the same” (Zaidan Hojin Biseibutsu Kagaku Kenkyu Kai, priority 1999, dated 2003).
Converted amounts (≈) assume the structure as drawn.

Columns and labels:
[1] = tested on: Pasteurella haemolytica BBPO101 N791; test: Minimum inhibition concentration (MIC), agar double dilution method; assay type: cell-based; conditions: Pasteurella haemolytica BBPO101 N791, strain from cattle; BHI agar
Procedure: (§1) Test 1; Minimum Inhibition Concentration (MIC)
(§2) MIC was measured, based on the standard method of Japan Society of Chemotherapy, on a BHI agar medium (Brain heart-infusion agar, made by Difco Laboratories Inc.(USA)) with respect to Pasteurella and on a Mueller hinton agar medium (Mueller hinton agar, made by Difco, Laboratories Inc.(USA)) with respect to the other test bacteria in both cases according to the double dilution method.

Escherichia coli NIHJ = test: as above; assay type: cell-based; conditions: Mueller hinton agar
Procedure: as §1, §2

[2] = tested on: Staphylococcus aureus 193; test: as above; assay type: cell-based; conditions: Mueller hinton agar
Procedure: as §1, §2

Serratia marcescens = test: as above; assay type: cell-based; conditions: Mueller hinton agar
Procedure: as §1, §2

[3] = tested on: Enterobacter aerogenes ATCC13048; test: as above; assay type: cell-based; conditions: Mueller hinton agar
Procedure: as §1, §2

Proteus vulgaris OX19 = test: as above; assay type: cell-based; conditions: Mueller hinton agar
Procedure: as §1, §2

[4] = tested on: Salmonella enteritidis 1891; test: as above; assay type: cell-based; conditions: Mueller hinton agar
Procedure: as §1, §2

[5] = tested on: Klebsiella pneumoniae PCI602; test: as above; assay type: cell-based; conditions: Mueller hinton agar
Procedure: as §1, §2

[6] = tested on: Micrococcus luteus PCI1001; test: as above; assay type: cell-based; conditions: Mueller hinton agar
Procedure: as §1, §2

[7] = tested on: Shigella dysenteriae JS11910; test: as above; assay type: cell-based; conditions: Shigella dysenteriae JS11910; Mueller hinton agar
Procedure: as §1, §2

[8] = tested on: Past haemolytica BAPO103 S801; test: as above; assay type: cell-based, Pasteurella haemolytica; conditions: Past haemolytica BAPO103 S801, strain from poultry; BHI agar
Procedure: as §1, §2

[9] = tested on: Past haemolytica BBPO102 N811; test: as above; assay type: cell-based, Pasteurella haemolytica; conditions: Past haemolytica BBPO102 N811, strain from cattle; BHI agar
Procedure: as §1, §2

[10] = tested on: S. aureus Smith (virulent strain); test: microbe, parasite or virus in culture; assay type: cell-based, Staphylococcus aureus; conditions: S. aureus Smith (virulent strain); Mueller hinton agar
Procedure: as §1, §2

[11] = tested on: Past. multocida BOPO305 M-17; test: Minimum inhibition concentration (MIC), agar double dilution method; assay type: cell-based, Pasteurella multocida; conditions: Past. multocida BOPO305 M-17, strain from a sheep; BHI agar
Procedure: as §1, §2

[12] = tested on: Past. multocida BSPO302 No. 6; test: as above; assay type: cell-based, Pasteurella multocida; conditions: Past. multocida BSPO302 No. 6, strain from a pig; BHI agar
Procedure: as §1, §2

S. aureus FDA209P = test: as above; assay type: cell-based, Staphylococcus aureus; conditions: Mueller hinton agar
Procedure: as §1, §2

E. coli K-12 R-5 = test: as above; assay type: cell-based, Escherichia coli; conditions: Mueller hinton agar
Procedure: as §1, §2

[13] = tested on: Bacillus subtilis NRRL B-558; test: as above; assay type: cell-based; conditions: Bacillus subtilis NRRL B-558; Mueller hinton agar
Procedure: as §1, §2

ICR mice = test: Toxicity test, intravenous or subcutaneous injection; assay type: in vivo
[14] = intravenous injection, 0.25 mg/mouse
[15] = intravenous injection, 0.5 mg/mouse
[16] = intravenous injection, 1.5 mg/mouse
[17] = intravenous injection, 2.0 mg/mouse
[18] = subcutaneous injection, 1.0 mg/mouse
[19] = subcutaneous injection, 2.0 mg/mouse
[20] = subcutaneous injection, 3.0 mg/mouse
[21] = subcutaneous injection, 4.0 mg/mouse

Row | SMILES | MIC [1] [µg/mL] | MIC (Escherichia coli NIHJ) [µg/mL] | MIC [2] [µg/mL] | MIC (Serratia marcescens) [µg/mL] | MIC [3] [µg/mL] | MIC (Proteus vulgaris OX19) [µg/mL] | MIC [4] [µg/mL] | MIC [5] [µg/mL] | MIC [6] [µg/mL] | MIC [7] [µg/mL] | MIC [8] [µg/mL] | MIC [9] [µg/mL] | MIC [10] [µg/mL] | MIC [11] [µg/mL] | MIC [12] [µg/mL] | MIC (S. aureus FDA209P) [µg/mL] | MIC (E. coli K-12 R-5) [µg/mL] | MIC [13] [µg/mL] | other results
1 | CC[C@H]1OC(=O)C[C@@H](O)[C@H](C)[C@@H](O[C@@H]2O[C@H](C)C(O)C(N(C)C)C2O)[C@@H](CCN2CC(C)CC(C)C2)C[C@@H](C)C(=O)/C=C/C(C)=C/[C@@H]1CN1CC(C)CC(C)C1 (stereo partly drawn) [DMP-MT] | 0.39 (≈ 0.494 µM) | 6.25 (≈ 7.91 µM) | 3.13 (≈ 3.96 µM) | 100 (≈ 127 µM) | 25 (≈ 31.6 µM) | 25 (≈ 31.6 µM) | 3.13 (≈ 3.96 µM) | 6.25 (≈ 7.91 µM) | 1.56 (≈ 1.97 µM) | 12.5 (≈ 15.8 µM) | 1.56 (≈ 1.97 µM) | 0.39 (≈ 0.494 µM) | 6.25 (≈ 7.91 µM) | 0.39 (≈ 0.494 µM) | 0.78 (≈ 0.987 µM) | 1.56 (≈ 1.97 µM) | >100 | – | –
2 | CC[C@H]1OC(=O)C[C@@H](O)[C@H](C)[C@@H](O[C@@H]2O[C@H](C)C(O)C(N(C)C)C2O)[C@@H](CCN2CCCC2)C[C@@H](C)C(=O)/C=C/C(C)=C/[C@@H]1CN1CCCC1 (stereo partly drawn) [Compound C-6] | 1.56 (≈ 2.21 µM) | 6.25 (≈ 8.85 µM) | 25 (≈ 35.4 µM) | 100 (≈ 142 µM) | 50 (≈ 70.8 µM) | – | 3.13 (≈ 4.43 µM) | – | 1.56 (≈ 2.21 µM) | 12.5 (≈ 17.7 µM) | 25 (≈ 35.4 µM) | 1.56 (≈ 2.21 µM) | 25 (≈ 35.4 µM) | 3.13 (≈ 4.43 µM) | 6.25 (≈ 8.85 µM) | – | >100 | 50 (≈ 70.8 µM) | –
3 | CC[C@H]1OC(=O)C[C@@H](O)[C@H](C)[C@@H](O[C@@H]2O[C@H](C)C(O)C(N(C)C)C2O)[C@@H](CCN(C)Cc2ccccc2)C[C@@H](C)C(=O)/C=C/C(C)=C/[C@@H]1CN(C)Cc1ccccc1 (stereo partly drawn) [Compound C-4] | 0.39 (≈ 0.484 µM) | 6.25 (≈ 7.75 µM) | 0.39 (≈ 0.484 µM) | 100 (≈ 124 µM) | 12.5 (≈ 15.5 µM) | 12.5 (≈ 15.5 µM) | 1.56 (≈ 1.94 µM) | 6.25 (≈ 7.75 µM) | 0.20 (≈ 0.248 µM) | 3.13 (≈ 3.88 µM) | 6.25 (≈ 7.75 µM) | 0.39 (≈ 0.484 µM) | 6.25 (≈ 7.75 µM) | 0.76 (≈ 0.943 µM) | 1.56 (≈ 1.94 µM) | 0.39 (≈ 0.484 µM) | >100 | – | –
4 | CCCCCCN(CCCCCC)CC[C@H]1C[C@@H](C)C(=O)/C=C/C(C)=C/[C@H](CN(CCCCCC)CCCCCC)[C@@H](CC)OC(=O)C[C@@H](O)[C@H](C)[C@H]1O[C@@H]1O[C@H](C)C(O)C(N(C)C)C1O (stereo partly drawn) [Compound C-2] | 12.5 (≈ 13.4 µM) | >100 | 3.13 (≈ 3.35 µM) | >100 | >100 | >100 | >100 | >100 | 6.25 (≈ 6.69 µM) | >100 | 100 (≈ 107 µM) | 12.5 (≈ 13.4 µM) | 6.25 (≈ 6.69 µM) | 50 (≈ 53.5 µM) | 50 (≈ 53.5 µM) | 6.25 (≈ 6.69 µM) | >100 | 12.5 (≈ 13.4 µM) | –
5 | CC[C@H]1OC(=O)C[C@@H](O)[C@H](C)[C@@H](O[C@@H]2O[C@H](C)C(O)C(N(C)C)C2O)[C@@H](CCN2CCC(C)CC2)C[C@@H](C)C(=O)/C=C/C(C)=C/[C@@H]1CN1CCC(C)CC1 (stereo partly drawn) [MP-MT] | 0.39 (≈ 0.512 µM) | – | 1.56 (≈ 2.05 µM) | 50 (≈ 65.6 µM) | 12.5 (≈ 16.4 µM) | 12.5 (≈ 16.4 µM) | 3.13 (≈ 4.11 µM) | 3.13 (≈ 4.11 µM) | 0.78 (≈ 1.02 µM) | 6.25 (≈ 8.2 µM) | 3.13 (≈ 4.11 µM) | 0.39 (≈ 0.512 µM) | – | 0.39 (≈ 0.512 µM) | 0.39 (≈ 0.512 µM) | 1.56 (≈ 2.05 µM) | >100 | 25 (≈ 32.8 µM) | –
6 | CC[C@H]1OC(=O)C[C@@H](O)[C@H](C)[C@@H](O[C@@H]2O[C@H](C)C(O)C(N(C)C)C2O)[C@@H](CCN(Cc2ccccc2)Cc2ccccc2)C[C@@H](C)C(=O)/C=C/C(C)=C/[C@@H]1CN(Cc1ccccc1)Cc1ccccc1 (stereo partly drawn) [Compound C-5] | 50 (≈ 52.2 µM) | >100 | 12.5 (≈ 13 µM) | 100 (≈ 104 µM) | >100 | >100 | >100 | >100 | 6.25 (≈ 6.52 µM) | >100 | >100 | 50 (≈ 52.2 µM) | 50 (≈ 52.2 µM) | >100 | >100 | 12.5 (≈ 13 µM) | >100 | 50 (≈ 52.2 µM) | –
7 | CC[C@H]1OC(=O)C[C@@H](O)[C@H](C)[C@@H](O[C@@H]2O[C@H](C)C(O)C(N(C)C)C2O)[C@@H](CCN2CCCCCC2)C[C@@H](C)C(=O)/C=C/C(C)=C/[C@@H]1CN1CCCCCC1 (stereo partly drawn) [Compound C-7] | 0.20 (≈ 0.262 µM) | – | – | 12.5 (≈ 16.4 µM) | 3.13 (≈ 4.11 µM) | 3.13 (≈ 4.11 µM) | 0.78 (≈ 1.02 µM) | 0.78 (≈ 1.02 µM) | 0.20 (≈ 0.262 µM) | 1.56 (≈ 2.05 µM) | – | 0.20 (≈ 0.262 µM) | 3.13 (≈ 4.11 µM) | 0.10 (≈ 0.131 µM) | 0.39 (≈ 0.512 µM) | – | 25 (≈ 32.8 µM) | 6.25 (≈ 8.2 µM) | Dissection finding (ICR mice; [14]): no abnormal finding; Surviving number (ICR mice; [14]): 2/2; Dissection finding (ICR mice; [15]): no abnormal finding; Surviving number (ICR mice; [15]): 1/2 (immediate death); Dissection finding (ICR mice; [16]): no abnormal finding; Surviving number (ICR mice; [16]): 0/2 (immediate death); Dissection finding (ICR mice; [17]): no abnormal finding; Surviving number (ICR mice; [17]): 0/2 (immediate death); Dissection finding (ICR mice; [18]): no abnormal finding; Surviving number / number of used animals (ICR mice; [18]): 2/2; Dissection finding (ICR mice; [19]): no abnormal finding; Surviving number / number of used animals (ICR mice; [19]): 2/2; Dissection finding (ICR mice; [20]): a little decoloring in kidney; Surviving number / number of used animals (ICR mice; [20]): 2/2; Dissection finding (ICR mice; [21]): no abnormal finding; Surviving number / number of used animals (ICR mice; [21]): 0/1 (died after 30 minutes)
8 | CC[C@H]1OC(=O)C[C@@H](O)[C@H](C)[C@@H](O[C@@H]2O[C@H](C)C(O)C(N(C)C)C2O)[C@@H](CCN(C)C)C[C@@H](C)C(=O)/C=C/C(C)=C/[C@@H]1CN(C)C (stereo partly drawn) [Compound C-1] | 6.25 (≈ 9.56 µM) | 12.5 (≈ 19.1 µM) | 50 (≈ 76.5 µM) | >100 | 50 (≈ 76.5 µM) | 100 (≈ 153 µM) | 6.25 (≈ 9.56 µM) | 25 (≈ 38.2 µM) | 3.13 (≈ 4.79 µM) | 50 (≈ 76.5 µM) | 50 (≈ 76.5 µM) | 6.25 (≈ 9.56 µM) | 100 (≈ 153 µM) | 6.25 (≈ 9.56 µM) | 12.5 (≈ 19.1 µM) | 50 (≈ 76.5 µM) | >100 | 100 (≈ 153 µM) | –
9 | CC[C@H]1OC(=O)C[C@@H](O)[C@H](C)[C@@H](O[C@@H]2O[C@H](C)C(O)C(N(C)C)C2O)[C@@H](CCN(C)C2CCCCC2)C[C@@H](C)C(=O)/C=C/C(C)=C/[C@@H]1CN(C)C1CCCCC1 (stereo partly drawn) [Compound C-3] | 0.39 (≈ 0.494 µM) | 3.13 (≈ 3.96 µM) | 1.56 (≈ 1.97 µM) | 50 (≈ 63.3 µM) | 12.5 (≈ 15.8 µM) | 12.5 (≈ 15.8 µM) | 1.56 (≈ 1.97 µM) | 3.13 (≈ 3.96 µM) | 0.78 (≈ 0.987 µM) | 6.25 (≈ 7.91 µM) | – | 0.78 (≈ 0.987 µM) | 3.13 (≈ 3.96 µM) | 1.56 (≈ 1.97 µM) | 1.56 (≈ 1.97 µM) | 1.56 (≈ 1.97 µM) | – | 3.13 (≈ 3.96 µM) | –
